{
  "source": "patent US20150203471A1",
  "about": "“METHODS FOR IMPROVING CHICKEN PRODUCTION” (ELI LILLY AND COMPANY, priority 2012, published 2015)",
  "key": {"[1]": {"test": "Ames assay (mutagenicity)", "format": "cell-based", "conditions": "compared with the other compounds tested"}, "male broilers [2]": {"tested_on": "male broilers", "test": "Study 2: growth performance and carcass responses of male broilers, compounds in feed in the last 14 days prior to slaughter", "format": "in vivo, chicken", "experimental": "Compounds 2, 5, and 9 are used in this study. The study is conducted to evaluate growth performance and carcass responses of male broilers by comparing non-zero dosages of the compounds, versus negative control, administered in the last 14 days prior to slaughter. Table 3 sets out the specific treatment groups.\nThe route of administration is oral, with the compounds mixed in feed, and provided Ad libitum. The age of the chickens of Day 1 of the study is 35 days old. Body weights are taken on the following days: • 1) Study Day 1 (pen weight) • 2) Study Day 15 (individual animal weights) • 3) Study Day 16 (individual weights on selected animals in animals in blocks 1-4) • 4) Study Day 17 (individual weights on selected animals in animals in blocks 5-8)\n(§1) Following collection of final weights, the following processing data is collected (hot weights) on individual animals: • 1) Live weight • 2) Hot carcass weight • 3) Fat pad weight • 4) Hot breast muscle weight • 5) Hot bone in leg weight"}, "[3]": {"tested_on": "Ross X Ross 708 male chicks", "test": "Study 4: live performance and carcass traits of broilers", "format": "in vivo, chicken", "conditions": "16 ppm in feed vs 0 ppm, 34 to 48 days of age", "experimental": "(§2) This study is conducted to investigate the effects of Compound 5 on live performance and carcass traits of broilers, and to evaluate the emission of various gases from broilers provision of feed with or without Compound 5. Ross X Ross 708 male chicks are used in this study. Compound 5 is administered at the following doses: 0 and 16 ppm, orally in feed, beginning when the chicks are 34 days of age and ending when the chicks are 48 days of age. The Compound 5 doses are administered in a mash diet formulated to meet all nutrient recommendations using only commercially available ingredients.\n(§3) Parameters measured in the study include ADG, ADFI, and FCR. The birds are measured for carcass (without giblets), breast muscle (boneless-skinless), leg-quarter, and abdominal fat weights. The live body weight on the day of processing is used to calculate the yields for carcass, breast meat, and leg quarters for the birds. Also measured are emissions of various gases. Cumulative gas emission are monitored and calculated for the following gases: NH3, NO, NO2, H2S, SO2, methane/non-methane total hydrocarbon, O2, and CO2. The efficacy of Compound 5 is determined by the cumulative emission of these gases, as well as by standardizing these cumulative values to their body, carcass, breast meat, and leg-quarter weights."}, "[4]": {"tested_on": "Hubbard M99 X Cobb chicks", "test": "Study 3: dose response in live performance and carcass yields of commercial broilers raised to a small-size market", "format": "in vivo, chicken", "experimental": "This study is conducted to determine the dose response of the Compound 5 measured in live performance and carcass yields of commercial broilers raised to a small-size market when fed a “typical” feed. 2400 Hubbard M99 X Cobb chicks (1200 male/1200 female) are used in this study. Compound 5 is administered at the following doses: 0, 2, 4, 8, and 16 ppm, orally in feed, beginning when the chicks are 24 days of age and ending when the chicks are 38 days of age. The five different Compound 5 doses are administered in a mash diet formulated to meet all nutrient recommendations using only commercially available ingredients.\nParameters measured in the study include ADG (average daily gain), ADFI (average daily feed intake), GE (gain efficiency), and FE (feed efficiency). The birds are measured for carcass (without giblets), breast muscle (boneless-skinless), and leg-quarter weights. The live body weight on the day of processing is used to calculate the yields for carcass, breast meat, and leg quarters for the birds."}, "[5]": {"tested_on": "Ross X Ross 708 male chicks", "test": "Study 4: cumulative gas emission from broilers", "format": "in vivo, chicken", "conditions": "16 ppm in feed, 34 to 48 days of age, compared to untreated birds", "experimental": "as §2, §3"}, "male broilers [6]": {"tested_on": "male broilers", "test": "Study 1: growth performance and carcass responses of male broilers, compounds in feed vs positive and negative controls", "format": "in vivo, chicken", "conditions": "14 days; for change in vivo at 15 ppm, 15 µg/mL: Gallus gallus, feed or water, 336 h", "text": "An objective of this study is to evaluate growth performance and carcass responses of male broilers by comparing non-zero dosages of the above compounds versus a positive control (Compound 1) and negative controls. Table 1 sets out the specific treatment groups:\nThe route of administration is oral, with the compounds mixed in feed, and provided Ad libitum. The age of the chickens of Day 1 of the study is 35 days old. Body weights are taken on the following days: • 1) Study Day 1 (pen weight) • 2) Study Day 14 (individual animal weights) • 3) Study Day 15 (individual weights on selected animals) • 4) Study Day 16 (blocks 1-5) • 5) Study Day 17 (blocks 6-10).\nas §1"}, "Zebrafish": {"tested_on": "Zebrafish", "test": "Zebrafish assay (teratogenesis/chromosomal impact)", "format": "in vivo", "conditions": "compared with the other compounds tested"}, "[7]": {"conditions": "0, 2, 4, 8, 16 ppm in feed, 24 to 38 days of age"}, "[8]": {"conditions": "0, 2, 4, 8, 16 ppm in feed, 24 to 38 days of age, male and female chicks"}, "[9]": {"conditions": "15 ppm in feed ad libitum, male broilers, percent change from negative control, * in cell = not significant"}},
  "note": "Where a name gives a salt, the structure may show the parent alone. Read-outs that look alike come from different tables or passages of the source.",
  "data": [
    {"smiles": "CC(C)(Cc1ccc(Oc2ccccn2)cc1)NC[C@H](O)COc1cccc2c1C(C)(C)C(=O)N2", "note": "[Compound 5, 4-[{(2S)-3-({1,1-dimethyl-2-[4-(pyridin-2-yloxy)phenyl]ethyl}amino)-2-hydroxypropyl]oxy}-3,3-dimethyl-1,3-dihydro-2H-indol-2-one hydrochloride]", "values": [
      {"measurement": "Ames assay result (mutagenicity)", "setting": "[1]", "value": "better results"},
      {"measurement": "ADG versus negative control group", "setting": "male broilers [2]; 3.5 ppm in feed", "value": "significantly higher"},
      {"measurement": "F/G ratio (feed:gain efficiency) versus negative control group", "setting": "male broilers [2]; 3.5 ppm in feed", "value": "significantly lower"},
      {"measurement": "G/F ratio (gain:feed efficiency) versus negative control group", "setting": "male broilers [2]; 3.5 ppm in feed", "value": "significantly higher"},
      {"measurement": "hot bone-in leg weight versus negative control group", "setting": "male broilers [2]; 3.5 ppm in feed", "value": "significantly higher"},
      {"measurement": "hot breast muscle weight versus negative control group", "setting": "male broilers [2]; 3.5 ppm in feed", "value": "significantly higher"},
      {"measurement": "hot carcass weight versus negative control group", "setting": "male broilers [2]; 3.5 ppm in feed", "value": "significantly higher"},
      {"measurement": "ADG versus negative control group", "setting": "male broilers [2]; 7 ppm in feed", "value": "significantly higher"},
      {"measurement": "F/G ratio (feed:gain efficiency) versus negative control group", "setting": "male broilers [2]; 7 ppm in feed", "value": "significantly lower"},
      {"measurement": "G/F ratio (gain:feed efficiency) versus negative control group", "setting": "male broilers [2]; 7 ppm in feed", "value": "significantly higher"},
      {"measurement": "hot bone-in leg weight versus negative control group", "setting": "male broilers [2]; 7 ppm in feed", "value": "significantly higher"},
      {"measurement": "hot breast muscle weight versus negative control group", "setting": "male broilers [2]; 7 ppm in feed", "value": "significantly higher"},
      {"measurement": "hot carcass weight versus negative control group", "setting": "male broilers [2]; 7 ppm in feed", "value": "significantly higher"},
      {"measurement": "live performance and carcass traits monitored", "setting": "[3]", "value": "improvements in all live performance carcass traits monitored, except for ADFI and mortality"},
      {"measurement": "leg-quarter weight", "setting": "[4]; [7]", "value": "Improvements are observed"},
      {"measurement": "leg-quarter yield", "setting": "[4]; [7]", "value": "Improvements are observed"},
      {"measurement": "FE (feed efficiency)", "setting": "[4]; [8]", "value": "Improvements are observed"},
      {"measurement": "GE (gain efficiency)", "setting": "[4]; [8]", "value": "Improvements are observed"},
      {"measurement": "dose response of the improvements (GE, FE, leg-quarter weight and yield)", "setting": "[4]; doses 2, 4, 8, 16 ppm in feed", "value": "doses at above 2 ppm do not show additional benefit"},
      {"measurement": "GE and FE by sex", "setting": "[4]; male versus female broilers, 24 to 38 days of age", "value": "positively impacted only in female broilers"},
      {"measurement": "reduction in NH3 emission standardized to live weight of the birds or its saleable cuts", "setting": "[5]", "value": "more than 30%"},
      {"measurement": "reduction of cumulative emission of H2S", "setting": "[5]", "value": 19.0, "unit": "%"},
      {"measurement": "reduction of cumulative emission of NH3", "setting": "[5]", "value": 29.2, "unit": "%"},
      {"measurement": "Ave daily live wt gain % inc.", "setting": "male broilers [6]; [9]", "value": 5.8, "unit": "%"},
      {"measurement": "Breast wt % inc.", "setting": "male broilers [6]; [9]", "value": 6.0, "unit": "%"},
      {"measurement": "Feed intake % inc.", "setting": "male broilers [6]; [9]", "value": "1.1* %"},
      {"measurement": "Gain effic % inc.", "setting": "male broilers [6]; [9]", "value": 4.9, "unit": "%"},
      {"measurement": "Leg wt % inc.", "setting": "male broilers [6]; [9]", "value": 8.1, "unit": "%"},
      {"measurement": "Fat Pad wt % dec.", "setting": "male broilers [6]; 15 ppm in feed ad libitum, male broilers, percent decrease from negative control, * in cell = not significant", "value": 17.4, "unit": "%"},
      {"measurement": "fat pad weight (in words)", "setting": "male broilers [6]; 15 ppm in feed", "value": "reduce fat pad weight"},
      {"measurement": "feed intake (in words)", "setting": "male broilers [6]; 15 ppm in feed", "value": "significant increase in feed intake"},
      {"measurement": "gain versus untreated control (in words)", "setting": "male broilers [6]; 15 ppm in feed", "value": "significantly greater than untreated control"},
      {"measurement": "significance of the fat pad weight difference", "setting": "male broilers [6]; 15 ppm in feed", "value": "significant"},
      {"measurement": "improvement versus negative control and positive control (in words)", "setting": "male broilers [6]; 15 ppm in feed, positive control = Compound 1", "value": "significantly better improvement than both the negative control and the positive control"},
      {"measurement": "change in vivo at 15 ppm, 15 µg/mL", "setting": "male broilers [6]; 15 ppm in feed ad libitum, male broilers 35 days old at Day 1, percent change from negative control, * in cell = not significant vs negative control, read-out: ADG % inc.", "value": 5.1, "unit": "%"},
      {"measurement": "change in vivo at 15 ppm, 15 µg/mL", "setting": "male broilers [6]; 15 ppm in feed ad libitum, male broilers, percent change from negative control, * in cell = not significant, read-out: Hot carcass wt % inc.", "value": 5.8, "unit": "%"},
      {"measurement": "Zebrafish assay result (teratogenesis/chromosomal impact)", "setting": "Zebrafish", "value": "better results"}
    ]}
  ]
}
